Reference: PMC5978685, “Design, Synthesis, and Evaluation of Novel Immunomodulatory Small Molecules Targeting the CD40–CD154 Costimulatory Protein-Protein Interaction” (Molecules : A Journal of Synthetic Chemistry and Natural …, 2018)

Experiments:
BAFFR–BAFF = molecular target: T1, BAFFR–BAFF (Homo sapiens, UniProt Q9Y275); assay: cell-free ELISA-type binding inhibition assay, BAFFR–BAFF
T1 construct: purchased Enzo Life Sciences
Experimental: (§1) In parallel with the CD40–CD154 assay, the ability of these compounds to inhibit other TNFSFR–TNFSF PPIs, including OX40–OX40L, BAFFR–BAFF, and TNF-R1–TNF-α, was also assessed (Figure 3B–D).
(§2) Binding inhibition assays were performed in a 96-well cell-free format as described before. Briefly, microtiter plates (Nunc F Maxisorp, 96-well; Thermo Fisher Scientific, Waltham, MA, USA) were coated overnight at 4 °C with 100 μL/well of Fc-conjugated receptors diluted in PBS pH 7.2. This was followed by blocking with 200 μL/well of blocking solution (PBS pH 7.2, 0.05% Tween-20, 1% BSA) for 1 h at RT. Then, plates were washed twice using washing solution (PBS pH 7.4, 0.05% Tween-20) and tapped dry before the addition of the appropriate FLAG tagged ligands along with different concentrations of tested dyes diluted in binding buffer (100 mM HEPES, 0.005% BSA pH 7.2) to give a total volume of 100 μL/well. After 1 h incubation, three washes were conducted, and anti-FLAG HRP conjugate was used to detect the bound FLAG-tagged ligand. Plates were washed four times before the addition of 120 μL/well of HRP substrate TMB (3,3′,5,5′-tetramethylbenzidine) and kept in the dark for up to 15 min. The reaction was stopped using 30 μL of 1M H2SO4, and the absorbance value was read at 450 nm. The concentrations of receptors used were 0.3 μg/mL for CD40, TNF-R1, and BAFFR; 0.6 μg/mL for OX40. The concentrations of the ligands were fixed at 0.02 μg/mL for CD154 and TNF-α, 0.06 μg/mL for OX40L, and 0.03 μg/mL for BAFF. These values were selected following preliminary testing to optimize response (i.e., to produce a high-enough signal at conditions close to half-maximal response, EC50). […] To verify that inhibition is not due to colloidal aggregation, CD40 binding inhibition was also measured in the presence of the non-ionic detergent Triton-X 100 (0.01%), as recommended for the detection of such effects.
(§3) All binding inhibition and cell assays were tested in duplicate or triplicate per plates, and assays were performed as at least three independent experiments. As before, binding and cytotoxicity data were converted to percent inhibition and fitted with standard log inhibitor vs. normalized response models using nonlinear regression in GraphPad Prism (GraphPad, La Jolla, CA, USA) to establish half-maximal (median) inhibitory concentration (IC50) or median lethal concentration (LC50) values. Cell assay data were fitted with a similar model that also allowed for a variable slope using the log inhibitor vs. normalized response (variable slope) model from Prism with a Hill slope (n) shared across all compounds. Cell assays and draining lymph node data were analyzed by one-way repeated-measures analysis of variance (ANOVA) followed by Dunnett’s multiple comparison test as a post hoc test for individual differences using GraphPad Prism and a significance level of p < 0.05 for all comparisons.
(§4) Data are (counterclockwise) for human CD40–CD154 (CD40L) (A); OX40–OX40L (B); BAFFR–BAFF (C); and TNF-R1–TNFα (D) and were fitted with standard binding curves. Data are average ± SD (normalized to percent binding) for n = 3 independent experiments with duplicates for each condition.

OX40–OX40L = molecular target: T2, OX40–OX40L (Homo sapiens, UniProt P23510); assay: cell-free ELISA-type binding inhibition assay, OX40–OX40L
T2 construct: purchased Enzo Life Sciences
T2 sequence (P23510 51-183 limits assumed): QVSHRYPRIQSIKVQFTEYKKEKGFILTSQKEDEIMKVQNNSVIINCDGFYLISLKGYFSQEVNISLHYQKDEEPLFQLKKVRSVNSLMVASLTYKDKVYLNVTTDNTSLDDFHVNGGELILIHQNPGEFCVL
Experimental: as §1, §2, §3, §4

TNF-R1–TNFα = molecular target: T3, TNF-R1–TNFα (Homo sapiens, UniProt P01375); assay: cell-free ELISA-type binding inhibition assay, TNF-R1–TNFα; conditions: cell-free TNF-R1–TNFα binding inhibition; read-out: TNF IC50
T3 construct: purchased Enzo Life Sciences
T3 sequence (P01375 85-233 limits assumed): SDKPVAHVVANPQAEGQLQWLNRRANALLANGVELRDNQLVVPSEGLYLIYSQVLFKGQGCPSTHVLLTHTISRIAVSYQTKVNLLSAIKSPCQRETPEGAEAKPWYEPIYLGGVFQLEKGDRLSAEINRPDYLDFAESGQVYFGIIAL
Experimental: as §1, §2, §3, §4

CD40–CD154 (CD40L) = molecular target: T4, CD40–CD154 (CD40L) (Homo sapiens, UniProt P29965); assay: cell-free ELISA-type binding inhibition assay, CD40–CD154; conditions: cell-free CD40–CD154 binding inhibition; read-out: CD40 IC50
T4 construct: purchased Enzo Life Sciences
T4 sequence (P29965 116-261 limits assumed): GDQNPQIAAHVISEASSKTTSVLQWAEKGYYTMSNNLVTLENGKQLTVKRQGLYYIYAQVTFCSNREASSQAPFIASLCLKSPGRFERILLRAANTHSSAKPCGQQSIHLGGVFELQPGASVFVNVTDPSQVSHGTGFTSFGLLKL
Excerpt: As a first assessment, the CD40–CD154 inhibitory activity of compounds 6–19 (Figure 2, Table 1) was quantified using a cell-free in vitro binding inhibition assay as described before. Data fitted with typical sigmoidal concentration dependence curves (log inhibitor versus response model in GraphPad Prism, Hill slope n = 1) are summarized in Figure 3A. […] Polymolecular conglomeration and/or aggregation is often a cause of promiscuous inhibition in screening assays. Therefore, just as in our previous work, we checked for this, and we confirmed for several compounds that inhibition due to aggregation is not the case by retesting inhibitory activity in the presence of a non-ionic detergent (Triton-X 100, 0.01%) as recommended for the detection of such effects.
as §2, §3, §4

[1] = test system: alloantigen-induced T cell response in draining popliteal lymph node; assay: alloantigen-induced T cell expansion in draining lymph node; assay type: in vivo, mouse (Balb/c); conditions: Balb/c mice, DBA-2 splenocytes in footpad; 10–20 mg/kg s.c. b.i.d.; p < 0.0001 vs vehicle
Experimental: The most promising compounds of the present series were evaluated for in vivo activity using the same model of alloantigen-induced T cell expansion in the draining lymph nodes (DLNs) that was described before. This procedure involved injection of splenocytes isolated from DBA-2 mice into the footpad of Balb/c recipients. Within three full days, this causes a significant increase in the number of cells in the draining popliteal lymph node, and this is inhibited by compounds with immunosuppressive activity.
The ability to inhibit alloantigen-induced T cell response in a draining lymph node was tested as described before. In brief, BALB/c mice (10–12 weeks old, female) received a footpad injection of 1 × 10^7 splenocytes isolated from DBA-2 mice (10–12 weeks old, male). CD154 antibody (MR-1; 20 mg/kg, day −1 and 0) or test compounds (20–60 mg/kg; b.i.d. from day −1 to 3, in 20% HPβCD) were administered s.c., and the draining popliteal lymph nodes (DLNs) were collected 3 days after the alloantigen challenge. DLN cells were counted and data are shown as mean ± SD (n = 3–4 per group).
as §3
Figure 6 Inhibition of alloantigen-induced T cell response in a draining lymph node by compounds 6, 15, 18, and 19. Mice (Balb/c) received a footpad injection of allogeneic splenocytes (isolated from DBA-2 mice) and were treated with anti-CD154 antibody (MR-1; 20 mg/kg, day −1 and 0) or compounds as shown (10–40 mg/kg, b.i.d. from day −1 to 3, s.c. in 20% HPβCD). Draining (popliteal) lymph nodes were collected three days after the alloantigen challenge and cells were counted. Data are shown as mean ± SD. Significant differences compared to vehicle-treated controls are indicated by asterisks (**** p < 0.0001; one-way ANOVA followed by Dunnett’s multiple comparison test).

IC50 (BAFFR–BAFF) | IC50 (OX40–OX40L) | IC50 (TNF-R1–TNFα) | IC50 (CD40–CD154 (CD40L)) | SMILES | inhibition of alloantigen-induced T cell expansion in draining lymph node [1]
26.7 µM | 7.28 µM | 61.5 µM | 44.8 µM | Cc1cc(NC(=O)c2ccc([N+](=O)[O-])cc2)ccc1-c1ccc(C(=O)Nc2cccc3cccc(S(=O)(=O)O)c23)cc1C [Compound 16, 8-(2,2′-Dimethyl-4′-(4-nitrobenzamido)-[1,1′-biphenyl]-4-carboxamido)naphthalene-1-sulfonic acid] | 
38.1 µM | 10.3 µM | 61.7 µM | 50.5 µM | O=C(Nc1cccc2cccc(S(=O)(=O)O)c12)c1ccc(-c2ccc(NC(=O)c3ccc([N+](=O)[O-])cc3[N+](=O)[O-])cc2)cc1 [Compound 12, 8-(4′-(2,4-Dinitrobenzamido)-[1,1′-biphenyl]-4-carboxamido)naphthalene-1-sulfonic acid] | 
81.4 µM | 36.6 µM | 118 µM | 57.5 µM | O=C(Nc1ccc2cc(C(=O)Nc3cccc4cccc(S(=O)(=O)O)c34)ccc2c1)c1ccc([N+](=O)[O-])cc1 [Compound 17, 8-(6-(4-Nitrobenzamido)-2-naphthamido)naphthalene-1-sulfonic acid] | 
42.2 µM | 10.1 µM | 61.1 µM | 57.8 µM | O=C(Nc1ccc(-c2ccc(C(=O)Nc3cccc4cccc(S(=O)(=O)O)c34)cc2)cc1)c1ccc(C(F)(F)F)cc1 [Compound 8, 8-(4′-(4-(trifluoromethyl)benzamido)biphenyl-4-ylcarboxamido)naphthalene-1-sulfonic acid] | 
2.01 µM | 9.34 µM | 555 µM | 0.299 µM | O=C(Nc1ccc(-c2ccc(C(=O)Nc3cccc4c(S(=O)(=O)O)cccc34)cc2)cc1)c1ccc([N+](=O)[O-])cc1 [Compound 7, 5-(4′-(4-Nitrobenzamido)-[1,1′-biphenyl]-4-carboxamido)naphthalene-1-sulfonic acid] | 
440 µM | 135 µM | 688 µM | 68.3 µM | O=C(Nc1ccc(-c2ccc(C(=O)Nc3ccc(S(=O)(=O)O)c4cccc(S(=O)(=O)O)c34)cc2)cc1)c1ccc([N+](=O)[O-])cc1 [Compound 10, 4-(4′-(4-Nitrobenzamido)-[1,1′-biphenyl]-4-carboxamido)naphthalene-1,5-disulfonic acid] | 
686 µM | > 1000 µM | 796 µM | 56 µM | COC(=O)c1cccc2c(NC(=O)c3ccc(-c4ccc(NC(=O)c5ccc([N+](=O)[O-])cc5)cc4)cc3)cccc12 [Compound 9, Methyl 5-(4′-(4-nitrobenzamido)-[1,1′-biphenyl]-4-carboxamido)-1-naphthoate] | 
5.27 µM | 86.2 µM | 674 µM | 0.39 µM | COC(=O)c1ccc(C(=O)Nc2ccc(-c3ccc(C(=O)Nc4cccc5cccc(S(=O)(=O)O)c45)cc3)cc2)cc1[N+](=O)[O-] [Compound 13, 8-(4′-(4-(Methoxycarbonyl)-3-nitrobenzamido)biphenyl-4-ylcarboxamido)naphthalene-1-sulfonic acid] | 
13.8 µM | 6.97 µM | 182 µM | 2.41 µM | COC(=O)c1ccc(C(=O)Nc2ccc(-c3ccc(C(=O)Nc4cccc5cccc(S(=O)(=O)O)c45)cc3)nc2)cc1 [Compound 19, 8-(4-(5-(4-(Methoxycarbonyl)benzamido)pyridin-2-yl)benzamido)naphthalene-1-sulfonic acid] | inhibited the alloantigen-induced T cell response in this model in statistically significant manner
